Earlier results, collected in patent publication US20230243813A1, “METHODS FOR SELECTING AND TREATING CANCER WITH FGFR3 INHIBITORS” (GENECENTRIC THERAPEUTICS, INC., priority 2020, published 2023).
Read-outs that look alike come from different tables or passages of the source.

Test system: bladder cancer cell lines
Conditions: GDSC1/GDSC2 IC50 data, RNA-seq and Affymetrix U219 expression, FAS-1 to FAS-4 scores

Structure (SMILES) | sensitivity (IC50) of samples identified as altered by the FAS classifiers | sensitivity (IC50) of samples identified as altered by the FAS classifiers (listed as BIBF)
COc1cc2c(Oc3ccc(NC(=O)C4(C(=O)Nc5ccc(F)cc5)CC4)cc3F)ccnc2cc1OCCCN1CCOCC1 [foretinib, Foretinib] | showed samples with sensitivity | –
COC(=O)c1ccc2c(c1)NC(=O)/C2=C(\Nc1ccc(N(C)C(=O)CN2CCN(C)CC2)cc1)c1ccccc1 [BIBF 1120, nintedanib] | high sensitivity | showed samples with sensitivity
